Test results published in publication PMC10218498, “Exploring BenzylethoxyAryl Urea Scaffolds for Multitarget Immunomodulation Therapies” (International Journal of Molecular Sciences, 2023).
Where two headings read alike, the source gives them in different places.

Legend:
[1] = test system: HEK-293 (human embryonic kidney cells); assay: MTT cell proliferation assay, HEK-293; format: cell-based; conditions: HEK293, 48 h of treatment
Experimental: (§1) This assay allowed us to establish the corresponding IC50 values (expressed as the concentration, in μM, at which 50% of cell viability is achieved), shown in Table 1.
(§2) In 96-well plates, 5 × 10^3 (HT-29, MCF-7, A549, HMEC-1, Jurkat, and HEK-293) cells per well were incubated with serial dilutions of the tested compounds in a total volume of 100 μL of their respective growth media. The 3-(4,5-dimethylthiazol-2-yl)-2,5-diphenyltetrazolium bromide (MTT; Sigma Chemical Co.) dye reduction assay in 96-well microplates was used. After 2 days of incubation (37 °C, 5% CO2 in a humid atmosphere), 10 μL of MTT (5 mg/mL in phosphate-buffered saline, PBS) was added to each well, and the plate was incubated for a further 3 h (37 °C). After that, the supernatant was discarded and replaced by 100 µL of DMSO to dissolve formazan crystals. The absorbance was then read at 550 nm by spectrophotometry. For all concentrations of compound, cell viability was expressed as the percentage of the ratio between the mean absorbance of treated cells and the mean absorbance of untreated cells. Three independent experiments were performed, and the IC50 values (i.e., concentration half inhibiting cell proliferation) were graphically determined using GraphPad Prism 4 software.

[2] = biological target: PD-L1 (Homo sapiens, UniProt Q9NZQ7); assay: PD-L1 relative quantification by flow cytometry in A-549; format: cell-based; set-up: endogenous in cells; host or cells: A-549; conditions: A-549, 20 µM, 24 h, relative to DMSO control = 100
Sequence of PD-L1 (Q9NZQ7 19-290): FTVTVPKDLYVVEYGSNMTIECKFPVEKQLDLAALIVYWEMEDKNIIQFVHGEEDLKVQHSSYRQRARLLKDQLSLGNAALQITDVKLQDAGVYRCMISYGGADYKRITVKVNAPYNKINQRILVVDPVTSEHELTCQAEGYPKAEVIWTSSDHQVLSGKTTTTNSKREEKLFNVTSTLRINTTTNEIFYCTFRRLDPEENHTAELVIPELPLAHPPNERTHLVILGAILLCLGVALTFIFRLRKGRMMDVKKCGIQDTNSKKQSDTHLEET
Experimental: To assess the effect of the selected compounds on the biological targets PD-L1 and VEFGR-2, we performed the study on both cancer cell lines HT-29 and A-549 and by flow cytometry technique. […] For these assays, cells were incubated for 24 h in the presence of the corresponding compounds at 20 µM concentration.
(§3) To study the effect of the compounds on every biological target in cancer cell lines, the compounds were used at 20 µM dose.
(§4) For the assay, 10^5 cells per well were incubated for 24 h with the corresponding dose of the tested compound in a total volume of 500 μL of their growth media.
On the one hand, to detect total PD-L1 and VEGFR-2, after the cell treatments, they were collected and fixed with 4% in PBS paraformaldehyde. After fixation, a treatment with 0.5% in PBS TritonTM X-100 was performed, and finally, cells were stained with FITC Mouse monoclonal Anti-Human VEGFR-2 (ab184903) and Alexa Fluor® 647 Rabbit monoclonal Anti-PD-L1 (ab215251).
(§5) On the other hand, to detect membrane PD-L1 and VEGFR-2, the process was the same, avoiding the treatment with 0.5% in PBS TritonTM X-100 step.

[3] = biological target: T1, VEGFR-2 (Homo sapiens, UniProt P35968); assay: VEGFR-2 relative quantification by flow cytometry in HT-29; format: cell-based; set-up: Both membrane and total PD-L1 and VEGFR-2 were relatively determined using DMSO-treated cells as a negative control; endogenous in cells; host or cells: HT-29; conditions: 24 h; for Total VEGFR-2 (%): relative to DMSO control = 100; for inhibition at 20 µM: HT-29, HT-29, 20 µM, read-out: inhibition rate of VEGFR-2
T1 sequence (P35968 20-1356): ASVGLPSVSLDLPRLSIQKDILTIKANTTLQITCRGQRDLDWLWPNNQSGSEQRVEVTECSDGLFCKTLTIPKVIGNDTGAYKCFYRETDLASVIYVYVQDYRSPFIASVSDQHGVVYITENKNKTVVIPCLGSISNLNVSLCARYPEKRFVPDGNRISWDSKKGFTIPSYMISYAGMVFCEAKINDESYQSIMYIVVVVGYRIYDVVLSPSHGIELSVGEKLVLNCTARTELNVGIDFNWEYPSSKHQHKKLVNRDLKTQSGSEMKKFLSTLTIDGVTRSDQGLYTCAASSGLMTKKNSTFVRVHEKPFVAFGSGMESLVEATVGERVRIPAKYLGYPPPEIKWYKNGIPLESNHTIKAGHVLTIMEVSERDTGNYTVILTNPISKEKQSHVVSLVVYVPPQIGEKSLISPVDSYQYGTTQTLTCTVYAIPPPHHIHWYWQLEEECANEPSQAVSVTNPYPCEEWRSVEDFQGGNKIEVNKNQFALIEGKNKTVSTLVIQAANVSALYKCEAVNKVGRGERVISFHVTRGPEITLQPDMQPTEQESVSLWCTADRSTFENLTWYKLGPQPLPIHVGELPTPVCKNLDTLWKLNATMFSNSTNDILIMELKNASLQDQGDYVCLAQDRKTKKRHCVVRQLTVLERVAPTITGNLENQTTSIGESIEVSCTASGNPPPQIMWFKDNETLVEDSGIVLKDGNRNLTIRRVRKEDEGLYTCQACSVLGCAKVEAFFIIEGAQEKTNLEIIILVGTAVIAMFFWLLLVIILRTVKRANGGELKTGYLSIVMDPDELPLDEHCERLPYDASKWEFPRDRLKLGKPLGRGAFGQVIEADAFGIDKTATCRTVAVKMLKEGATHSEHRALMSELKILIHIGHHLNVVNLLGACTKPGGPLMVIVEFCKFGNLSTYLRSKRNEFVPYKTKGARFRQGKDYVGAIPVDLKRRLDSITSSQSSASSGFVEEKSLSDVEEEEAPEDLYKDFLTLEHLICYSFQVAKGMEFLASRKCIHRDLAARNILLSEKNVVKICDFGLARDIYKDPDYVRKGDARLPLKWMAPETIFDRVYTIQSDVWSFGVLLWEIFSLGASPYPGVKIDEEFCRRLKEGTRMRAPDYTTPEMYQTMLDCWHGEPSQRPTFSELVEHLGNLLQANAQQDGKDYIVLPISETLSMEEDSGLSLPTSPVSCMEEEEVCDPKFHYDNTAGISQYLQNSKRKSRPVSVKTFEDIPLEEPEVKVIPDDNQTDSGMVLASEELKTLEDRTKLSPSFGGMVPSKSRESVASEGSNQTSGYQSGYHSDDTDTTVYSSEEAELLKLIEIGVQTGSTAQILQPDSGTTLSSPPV
Experimental: (§6) For these assays, cells were incubated for 24 h in the presence of the corresponding compounds at 20 µM concentration.
as §3, §4
(§7) On the one hand, to detect total PD-L1 and VEGFR-2, after the cell treatments, they were collected and fixed with 4% in PBS paraformaldehyde.
as §5

[4] = biological target: T1, VEGFR-2; assay: VEGFR-2 relative quantification by flow cytometry in A-549; format: cell-based; set-up: Both membrane and total PD-L1 and VEGFR-2 were relatively determined using DMSO-treated cells as a negative control; endogenous in cells; host or cells: A-549; conditions: A-549, 20 µM, 24 h, relative to DMSO control = 100
Experimental: as §6, §3, §4, §7, §5

[5] = test system: HT-29 cells; assay: Cancer cell viability in monoculture and co-cultures with THP-1 by flow cytometry; format: cell-based, human; conditions: for morphological changes of HT-29 cells: 48 h co-culture with THP-1 at (1:5); for viability at 20 µM: Homo sapiens
Experimental: We also studied the effect of the selected compounds on tumor cell proliferation in the presence of human monocytic leukemia cell line THP-1. This assay was carried out using HT-29 as the cancer cell line and different proportions of immune cells. Standard proportions for this assay were 1:5 cancer/immune cells. Additionally, we also carried out this assay using a 2:1 proportion of cancer cells as regards immune THP-1 cells. Assays were performed after 24 and 48 h of treatment, using 20 μM doses of selected compounds and BMS-8 as the reference compound.
First, to study the effect of the compounds on the cell viability in monoculture, 10^5 of cancer cell line per well were seeded and incubated for 24 h; then, the corresponding compound at 20 μM or DMSO for the positive control were added. After 24 h of incubation, cancer cells were collected with trypsin and fixed with 4% in PBS paraformaldehyde and counted by flow cytometry.
On the other hand, to study the effect of the compounds on the cell viability in co-culture with THP-1 cells, 10^5 or 2 × 10^5 of the HT-29 cells line per well were seeded and incubated for 24 h, then the medium was changed by one cell culture medium supplemented with IFN-γ (10 ng/mL; human, Invitrogen®, Waltham, MA, USA) and containing 5 × 10^5 or 105, respectively, of THP-1 per well and the corresponding compound at 20 μM or DMSO for the positive control. After 24 h/48 h of incubation, supernatants were collected to determine THP-1 living cells. Additionally, stain cancer cells were collected with trypsin. Both types of suspension cells were fixed with 4% in PBS paraformaldehyde and counted by flow cytometry.

[6] = test system: human microvessel endothelial cells (HMEC-1); assay: MTT cell proliferation assay, HMEC-1; format: cell-based; conditions: 48 h of treatment
Experimental: as §1, §2

[7] = test system: HMEC-1 microtube formation; assay: Tube formation inhibition assay on Matrigel; format: cell-based, human; conditions: HMEC-1 on Matrigel, 24 h
Experimental: The capacity to inhibit the formation of a new vasculature network formed by HMEC-1 was evaluated on compounds 8 and 14 at different concentrations.
Wells of an IBIDI μ-slide angiogenesis (IBIDI, Martinsried, Germany) were coated with 15 μL of Matrigel® (10 mg/mL, BD Biosciences) at 4 °C. After gelatinization at 37 °C for 30 min, HMEC-1 cells were seeded at 2 × 10^4 cells/well in 25 μL of culture medium on top of the Matrigel and were incubated 30 min at 37 °C while are attached. Then, compounds were added and dissolved in 25 μL of culture medium, and after 24 h of incubation at 37 °C, tube formation was evaluated.

[8] = HT-29 monoculture, 20 μM, read-out: cancer cell viability (%), Monocult. HT-29
[9] = co-culture 1:5 HT-29/THP-1, 20 μM, 24 h, read-out: cancer cell viability (%), 1:5 HT-29/THP-1, 24 h
[10] = co-culture 1:5 HT-29/THP-1, 20 μM, 48 h, read-out: cancer cell viability (%), 1:5 HT-29/THP-1, 48 h
[11] = co-culture 2:1 HT-29/THP-1, 20 μM, 24 h, read-out: cancer cell viability (%), 2:1 HT-29/THP-1, 24 h
[12] = co-culture 2:1 HT-29/THP-1, 20 μM, 48 h, read-out: cancer cell viability (%), 2:1 HT-29/THP-1, 48 h
[13] = co-culture (1:5) HT-29/THP-1, 24 h, 20 μM
[14] = co-culture (2:1) HT-29/THP-1, 24 h, 20 μM

Row | Total PD-L1 (%) [2] | Total VEGFR-2 (%) ([3]; HT-29, 20 µM) | Total VEGFR-2 (%) [4] | inhibition rate of VEGFR-2 ([3]; HT-29, 20 µM) | inhibition at 20 µM [3] | melting point | SMILES | IC50 [1] | morphological changes of HT-29 cells ([5]; 20 μM) | viability at 20 µM [5, 8] | viability at 20 µM [5, 9] | viability at 20 µM [5, 10] | viability at 20 µM [5, 11] | viability at 20 µM [5, 12] | IC50 [6] | cancer cell viability (%), 2:1 HT-29/THP-1, 48 h ([5]; co-culture 2:1 HT-29/THP-1, 20 μM, 48 h) | inhibition of cell viability (HT-29) [5, 13] | inhibition of cell viability (HT-29) [5, 14] | Minimum Active Conc. (inhibition of microtube formation) [7]
1 | 80 ± 7% | 46 ± 18% | 141 ± 13% | – | ~60% | – | COc1ccc(COc2cccc(NC(=O)Nc3ccc(Br)cc3)c2)cc1 [Compound 8] | > 100 µM | less confluent cultures with a few elongated fibroblast-like appearance cells | 86 ± 9% | 83 ± 13% | 106 ± 8% | 95 ± 16% | 92 ± 20% | > 100 µM | – | – | – | 20 µM
2 | 107 ± 13% | 62 ± 15% | 97 ± 12% | – | ~50% | 201 to 205 °C | COc1ccc(COc2cccc(NC(=O)Nc3ccc(F)cc3)c2)cc1 [Compound 2] | > 100 µM | less confluent cultures with a few elongated fibroblast-like appearance cells | 89 ± 7% | 80 ± 4% | 102 ± 16% | 83 ± 5% | 95 ± 5% | > 100 µM | – | 20% | 20% | –

The next lines start with the compound.

Row | SMILES | Total PD-L1 (%) [2] | Total VEGFR-2 (%) ([3]; HT-29, 20 µM) | Total VEGFR-2 (%) [4] | inhibition rate of VEGFR-2 ([3]; HT-29, 20 µM) | inhibition at 20 µM [3] | melting point | IC50 [1] | morphological changes of HT-29 cells ([5]; 20 μM) | viability at 20 µM [5, 8] | viability at 20 µM [5, 9] | viability at 20 µM [5, 10] | viability at 20 µM [5, 11] | viability at 20 µM [5, 12] | IC50 [6] | cancer cell viability (%), 2:1 HT-29/THP-1, 48 h ([5]; co-culture 2:1 HT-29/THP-1, 20 μM, 48 h) | inhibition of cell viability (HT-29) [5, 13] | inhibition of cell viability (HT-29) [5, 14] | Minimum Active Conc. (inhibition of microtube formation) [7]
3 | Cc1c(COc2ccc(CN3CCCCC3C(=O)O)cc2Br)cccc1-c1ccccc1 (stereo not drawn) [BMS-8, reference compound] | 96 ± 29% | 86 ± 21% | 122 ± 13% | – | – | – | 60 ± 10 µM | retained this epithelial nature, resulting in an increased and brighter cytosolic granulation | 102 ± 23% | 88 ± 3% | 102 ± 12% | 106 ± 10% | 101 ± 3% | – | – | – | – | –
4 | COc1ccc(COc2cccc(NC(=O)Nc3ccc(OC)cc3)c2)cc1 [Compound 11] | 135 ± 18% | 168 ± 12% | 143 ±10% | no inhibitory effect | – | – | > 100 µM | less confluent cultures with a few elongated fibroblast-like appearance cells | 95 ± 21% | 86 ± 4% | 119 ± 14% | 88 ± 3% | 85 ± 11% | > 100 µM | active | 20% | 20% | –
5 | COc1ccc(COc2cccc(NC(=O)Oc3ccccc3)c2)cc1 [Compound 14] | 141 ± 1% | 43 ± 12% | 107 ± 18% | – | ~60% | – | > 100 µM | slight loss of cell-to-cell contact and the appearance of clustered cells with irregular surfaces | 82 ± 4% | 90 ± 6% | 97 ± 5% | 88 ± 9% | 85 ± 14% | > 100 µM | – | – | – | 20 µM
